From PMC4690813 (Journal of medicinal chemistry, 2015)

Columns and labels:
[1] = tested on: panel of serine hydrolases; details: gel-based competitive ABPP; FAAH only detected off-target; ref [12], [13]; cited from earlier work
recombinant human DAGLα = target: T1, recombinant human DAGLα (Homo sapiens, UniProt Q9Y4D2); assay: colorimetric DAGLα activity assay; format: biochemical; details: for LipE: LipE = pIC50 - cLogP; for fold drop in potency/activity: 2 compared to 1, 109 compared to 1, 122 compared to oleoyl analogue 121
T1 sequence (Q9Y4D2 1-1042): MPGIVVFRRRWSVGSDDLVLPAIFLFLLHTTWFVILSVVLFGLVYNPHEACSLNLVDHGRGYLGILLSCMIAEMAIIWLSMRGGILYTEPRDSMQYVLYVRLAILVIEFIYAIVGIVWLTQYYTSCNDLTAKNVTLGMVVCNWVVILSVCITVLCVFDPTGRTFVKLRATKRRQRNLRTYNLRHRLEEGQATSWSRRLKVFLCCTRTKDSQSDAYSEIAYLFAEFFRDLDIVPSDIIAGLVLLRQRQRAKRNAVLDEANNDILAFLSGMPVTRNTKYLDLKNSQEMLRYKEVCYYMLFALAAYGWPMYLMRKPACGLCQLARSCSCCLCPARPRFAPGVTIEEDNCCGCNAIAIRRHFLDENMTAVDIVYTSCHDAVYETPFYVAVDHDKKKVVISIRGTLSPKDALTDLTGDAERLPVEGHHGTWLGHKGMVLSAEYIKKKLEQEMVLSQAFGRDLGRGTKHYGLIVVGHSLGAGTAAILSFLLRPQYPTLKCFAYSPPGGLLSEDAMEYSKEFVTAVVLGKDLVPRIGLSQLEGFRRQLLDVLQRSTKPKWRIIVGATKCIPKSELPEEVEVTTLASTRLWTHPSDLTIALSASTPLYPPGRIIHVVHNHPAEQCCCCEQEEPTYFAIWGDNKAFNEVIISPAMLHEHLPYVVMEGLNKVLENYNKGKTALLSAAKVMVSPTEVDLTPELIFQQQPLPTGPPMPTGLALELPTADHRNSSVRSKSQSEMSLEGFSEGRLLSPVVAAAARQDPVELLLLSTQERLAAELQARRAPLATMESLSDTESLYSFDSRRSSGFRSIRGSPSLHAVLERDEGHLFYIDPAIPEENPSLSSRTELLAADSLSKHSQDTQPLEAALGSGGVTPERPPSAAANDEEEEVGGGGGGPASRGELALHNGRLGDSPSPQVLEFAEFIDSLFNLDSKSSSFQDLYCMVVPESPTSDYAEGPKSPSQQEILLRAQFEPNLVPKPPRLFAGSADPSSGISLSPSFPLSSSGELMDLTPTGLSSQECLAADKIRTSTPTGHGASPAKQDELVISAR

FAAH = FAAH activity reported in the literature; format: biochemical; details: DAGLα pIC50 versus previously reported FAAH pKi

Row | LipE (recombinant human DAGLα) | SMILES | other results
1 | 3.35 | O=C(CCCCCc1ccccc1)c1nc2ncccc2o1 [Compound 1, 1-(Oxazolo[4,5-b]pyridin-2-yl)-6-phenylhexan-1-one] | selectivity over a panel of serine hydrolases [1]: highly selective
2 | – | O=C(CCCCCCc1ccccc1)c1nc(C(=O)C(F)(F)F)co1 [Compound 45] | selectivity over FAAH (FAAH): selective over FAAH
3 | 2.11 | O=C(CCc1ccccc1)c1nc2ncccc2o1 [Compound 106, 1-(Oxazolo[4,5-b]pyridin-2-yl)-3-phenylpropan-1-one] | –
4 | 2.64 | O=C(CCCc1ccccc1)c1nc2ncccc2o1 [Compound 107, 1-(Oxazolo[4,5-b]pyridin-2-yl)-4-phenylbutan-1-one] | –
5 | 3.15 | O=C(CCCCc1ccccc1)c1nc2ncccc2o1 [Compound 108, 1-(Oxazolo[4,5-b]pyridin-2-yl)-5-phenylpentan-1-one] | –
6 | 1.68 | O=C(CCCCCCc1ccccc1)c1nc2ncccc2o1 [Compound 109, 1-(Oxazolo[4,5-b]pyridin-2-yl)-7-phenylheptan-1-one] | fold drop in potency/activity (recombinant human DAGLα): > 10 fold
7 | 2.20 | O=C(CCCCCCCc1ccccc1)c1nc2ncccc2o1 [Compound 110, 1-(Oxazolo[4,5-b]pyridin-2-yl)-8-phenyloctan-1-one] | –
8 | 2.78 | O=C(CCCCCCCCc1ccccc1)c1nc2ncccc2o1 [Compound 111] | –
9 | – | CCCCC/C=C\C/C=C\C/C=C\C/C=C\CCCC(=O)c1nc2ncccc2o1 [Compound 122] | fold drop in potency/activity (recombinant human DAGLα): ~100 fold
10 | – | CCCCCCCC/C=C\CCCCCCCC(=O)c1nc2ccccc2[nH]1 [Compound 123] | selectivity over FAAH (FAAH): selective over FAAH
11 | – | O=C(CCCCCCc1ccccc1)c1ncc(-c2ccccn2)o1 [OL-135, reference compound] | DAGLα inhibitor activity (in words) (recombinant human DAGLα): not active
